Assay results as given in US20060128718A1, “Tetrahydropyridazine derivatives having a pesticidal effect” (priority 2002, published 2006).
Like-named read-outs stand apart in the source and are kept apart here.

Experiments:
[1] = system: larvae of the diamondback moth (Plutella xylostella); test: Plutella test (cabbage leaves dipped); format: in vivo
Text: (§1) Plutella Test To prepare one of the appropriate active ingredient preparations, mix 1 part by weight of the active ingredient with the indicated amount of solvent and emulsifier and dilute the concentrate with emulsifier-containing water to the desired concentration. Treat cabbage leaves (Brassica oleracea) by dipping into the active ingredient preparation of the desired concentration and infesting with larvae of the diamondback moth (Plutella xylostella) while the leaves are still damp. After the desired time, determine the death rate in %. For these purposes 100% means that all the larvae on the leaves were killed; 0% means that no larvae were killed.

[2] = system: larvae of the mustard beetle (Phaedon cochleariae); test: Phaedon larvae test (cabbage leaves dipped); format: in vivo
Text: as §1, with “Phaedon Larvae Test To” for “Plutella Test To”, “of the mustard beetle (Phaedon cochleariae) while the” for “of the diamondback moth (Plutella xylostella) while the”, “%. For this purpose 100% means” for “%. For these purposes 100% means”, “all the beetle larvae on” for “all the larvae on”, “that no beetle larvae were” for “that no larvae were”

[3] = system: larvae of the fall armyworm (Spodoptera frugiperda); test: Spodoptera frugiperda test (cabbage leaves dipped); format: in vivo
Text: as §1, with “Spodoptera frugiperda” for “Plutella”, “infesting them” for “infesting”, “fall armyworm (Spodoptera frugiperda)” for “diamondback moth (Plutella xylostella)”

[4] = logP determination by HPLC on reversed phase column (C 18), EEC directive 79/831; format: physicochemical; details: reversed phase HPLC column (C 18)
Description: Determine the logP values given in the table as specified in EEC directive 79/831 ex V.A8 using HPLC (high performance liquid chromatography) in a reversed e column (C 18). Temperature: 43° C.
(a) eluents for determination in the acid range: 0.1% aqueous phosphoric acid, acetonitrile, linear gradient of 10% acetonitrile to 90% acetonitrile—corresponding measurement results are marked with an a) in Table 1.
(b) eluents for determination in the neutral range: 0.01-molar aqueous phosphate buffer solution, acetonitrile, linear gradient of 10% acetonitrile to 90% acetonitrile—corresponding measurement results are marked with a b) [sic] in Table 1.
Calibration is done using unbranched alkane-2-ones (with 3 to 16 carbon atoms), whose logP values are known (determination of the logP values using the retention times via linear interpolation between two sequential ketones).

[5] = system: larvae of the beet armyworm (Spodoptera exigua); test: Spodotera exigua test (cabbage leaves dipped); format: in vivo
Text: as §1, with “Spodotera exigua” for “Plutella”, “infesting them” for “infesting”, “beet armyworm (Spodoptera exigua)” for “diamondback moth (Plutella xylostella)”

[6] = system: Heliothis armigera larvae; test: Heliothis armigera test (soybean sprouts dipped, larvae); format: in vivo
Text: Heliothis armigera Test To prepare one of the appropriate active ingredient preparations, mix 1 part by weight of the active ingredient with the indicated amount of solvent and emulsifier and dilute the concentrate with emulsifier-containing water to the desired concentration. Treat soybean sprouts (Glycine max) by dipping into the active ingredient preparation of the desired concentration and infesting with Heliothis armigera larvae while the leaves are still damp. After the desired time, determine the death rate in %. For these purposes 100% means that all the larvae on the leaves were killed; 0% means that no larvae were killed.

[7] = 500 ppm active ingredient, after 7d, cabbage leaves

Compound | Death rate in % after 7d [1, 7] | efficacy (in words) ([1]; Plutella test) | Death rate in % after 7d [2, 7] | efficacy (in words) ([2]; Phaedon larvae test) | Death rate in % after 7d [3, 7] | efficacy (in words) ([3]; Spodoptera frugiperda test) | chromatographic logP ([4]; pH 2.3, read-out: logp (pH: 2.3)) | Death rate in % after 7d [5, 7] | efficacy (in words) ([5]; Spodotera exigua test) | Death rate in % after 7d ([6]; 500 ppm active ingredient, after 7d, soybean sprouts) | efficacy (in words) ([6]; Heliothis armigera test) | chromatographic logP ([4]; pH 2, pH2)
N#CCN(C(=O)N1CCC(n2cc(Cl)cn2)C(c2cccc(C(F)(F)F)c2)=N1)c1ccc(OC(F)(F)F)cc1 (stereo not drawn) [Example 1, N-cyanomethyl-4-(4-chloropyrazole-1-yl)-1-(4-trifluoromethoxy-phenylamino)-3-(trifluoromethyl-phenyl)-carbonyl-1,4,5,6-tetrahydropyridazine] | 100% | good efficacy | 100% | good efficacy | 100% | good efficacy | 4.22 | 100% | good efficacy | 100% | good efficacy | 
N#Cc1cccc(C(=O)C(Br)CCCl)c1 (stereo not drawn) [Example (X-1), 3′-cyano-2-bromo-4-chlorobutyrophenone] |  |  |  |  |  |  |  |  |  |  |  | 3.09
